The values that follow come from article PMC10063609, “Discovery of novel cardiac troponin activators using fluorescence polarization-based high throughput screening assays” (Scientific Reports, 2023).

Where a name gives a salt, the structure may show the parent alone. Read-outs that look alike come from different tables or passages of the source.

For experiment [1], the target named is interaction between cTnC and the anchoring region of cTnI (cTnIAR) (Homo sapiens, UniProt P63316). Put plainly: Fluorescence polarization HTS, binding and dose-response, cTnC/FAM-cTnIAR. The settings on record: cTnIAR primary screen, single concentration 10 μmol/L.
Protocol: (§1) Each compound was tested at a concentration of 50 μmol/L and 10 μmol/L for the cTnISP and cTnIAR screen, respectively. Hits were defined as compounds that changed the average FP value more than five-times the standard deviation (SD) (Fig. 1d, red lines). Moreover, compounds that either increased or decreased the total fluorescence intensity (FI) more than five-times the SD were removed from further analysis, indicating either compound aggregation or unspecific interactions with the fluorophore or protein complex.
(§2) Libraries were reformatted from 96-well plates to Greiner 384-well black plates using a GILSON PipetMax. The plates were sealed with adhesive foil and stored at − 20 °C until further use. […] A total of 40 nL of 10 mmol/L compound stocks were transferred to each well using a Mosquito liquid handler system (final DMSO concentration of 0.1% (v/v)). The plates were incubated in the dark for 30 min at 25 °C, and the fluorescence polarization from each well was measured using a ClarioStar Plate reader with appropriate excitation and emission filter settings. Dose–response curves were constructed by serial dilution of compounds in DMSO and adding a fixed volume to a mixture of peptide and cTnC.
(§3) Fluorescence polarization dose–response and binding experiments were performed in Greiner 384-well black plates in assay buffer (20 mmol/L Tris–HCl pH 7, 100 mmol/L NaCl, 1 mmol/L CaCl2, 1 mmol/L DTT) at 25 °C.
Experiment [2] deals with interaction between cTnC and switch peptide of cTnI (cTnISP) (Homo sapiens, UniProt P63316). Briefly: Fluorescence polarization HTS and dose-response, cTnC/FAM-cTnISP. Format: binding.
Protocol: as §1, §2, §3
[3] abbreviates: cTnISP primary screen, TOCRIScreen library, single concentration 50 μmol/L.
[4] abbreviates: cTnISP primary screen, ENZO Screenwell library, single concentration 50 μmol/L.
[5] abbreviates: cTnISP primary screen, LOPAC 1280 library, single concentration 50 μmol/L.

Consider `C[C@]12C=CC(=O)C=C1CC[C@@H]1C2=CC[C@]2(C)[C@@H](C(=O)CN3CCN(c4cc(N5CCCC5)nc(N5CCCC5)n4)CC3)CC[C@@H]12.O=C(O)/C=C\C(=O)O` [U-74389G maleate], for which the “FP (mP)” value in experiment [1] (LOPAC 1280 library) stood at 115.3 mP.
As for `Cc1ccc2[nH]c(=O)c(C3=NN(C(=O)CCC(=O)O)C(c4ccc(Br)cc4)C3)c(-c3ccccc3)c2c1` (stereo not shown) [DQP 1105], in experiment [1] (TOCRIScreen library), the “FP (mP)” value is on record as 103 mP.
`CN(C)CCCn1cc(C2=C(c3c[nH]c4ccccc34)C(=O)NC2=O)c2ccccc21` [GF 109203X]: the “FP (mP)” value in experiment [2] (setting [3]) is 82.4 mP; in experiment [1] (TOCRIScreen library) it was 104.5 mP.
Regarding `Cl.c1ccc(C2CCCC2NC2=NCCCCCCCCCCC2)cc1` (stereo not shown) [cDPCP], in experiment [1] (LOPAC 1280 library), the “FP (mP)” value stood at 67.5 mP.
Consider `N.N.O=C([O-])C1(C(=O)[O-])CCC1.[Pt+2]` [Carboplatin], for which, in experiment [1] (ENZO Screenwell library), the “FP (mP)” value worked out at 67.3 mP.
On to `Cc1cn[nH]c1` [Fomepizole], for which the “FP (mP)” value in experiment [1] (ENZO Screenwell library) turned out to be 118 mP.
For the compound `O=C(O)c1ccc(-c2ccc(/C=C3\SC(=S)N(Cc4ccccc4)C3=O)o2)cc1` [Leukadherin-1], the “FP (mP)” value in experiment [1] (LOPAC 1280 library) amounted to 121.9 mP.
In the case of `N.N.[Cl][Pt][Cl]` [Cisplatin, Cis-Diamineplatinum(Ii) Dichloride], the “FP (mP)” value in experiment [1] (ENZO Screenwell library) came out at 61.9 mP; in experiment [1] (LOPAC 1280 library), 56.6 mP.
Regarding `CC1Cc2ccccc2N1NC(=O)c1ccc(Cl)c(S(N)(=O)=O)c1` (stereo not shown) [Indapamide], the “FP (mP)” value in experiment [1] (ENZO Screenwell library) stood at 116.5 mP.
On to `O=C(NCc1ccc(C(F)(F)F)cc1)Nc1cccc2cnccc12` [A 425619], for which the “FP (mP)” value in experiment [1] (TOCRIScreen library) was determined as 105.5 mP.
As to `O=C1c2c(O)ccc(O)c2C(=O)c2c(NCCNCCO)ccc(NCCNCCO)c21` [Mitoxantrone], the “FP (mP)” value in experiment [1] (LOPAC 1280 library) was found to be 57.1 mP.
Consider `CCn1c(-c2nonc2N)nc2cnc(Oc3cccc(NC(=O)c4ccc(OCCN5CCOCC5)cc4)c3)cc21` [GSK 269962], for which the “FP (mP)” value in experiment [1] (TOCRIScreen library) was 104.8 mP.
As for `CCOc1cc(CC(=O)N[C@@H](CC(C)C)c2ccccc2N2CCCCC2)ccc1C(=O)O` [Repaglinide], the “FP (mP)” value in experiment [1] (TOCRIScreen library) is recorded as 103.2 mP.
Take `CCCC[P+](CCCC)(CCCC)Cc1ccc(NC(=O)[C@H](Cc2ccc3ccccc3c2)NC(=NC2CCCCC2)NC2CCCCC2)cc1.Cl.[Cl-]` [WIN 64338 hydrochloride]: the “FP (mP)” value in experiment [1] (TOCRIScreen library) is given as 71 mP.
The same measure, in the same setting: the same measure for `O=C(O)C[C@H]1CC[C@H](c2ccc(NC(=O)c3nnc(Nc4ccc(F)c(F)c4)o3)cc2)CC1` [AZD 3988]: 115.5 mP.
In the case of `N#CC(C#N)=C(N)/C(C#N)=C/c1ccc(O)cc1` [Tyrphostin AG 112], the “FP (mP)” value in experiment [1] (LOPAC 1280 library) worked out at 115.8 mP.
Regarding `NC(=O)N1c2ccccc2CC(=O)c2ccccc21` [Oxcarbazepine], the “FP (mP)” value in experiment [1] (ENZO Screenwell library) is recorded as 70.9 mP.
`CN(C)c1cc2c(Nc3ccc4c(cnn4Cc4ccccc4)c3)ncnc2cn1` [GW2974]: the “FP (mP)” value in experiment [1] (LOPAC 1280 library) came to 117.8 mP.
Turning to `Oc1c2ccccc2c2c3c(cccc13)N=N2` [SP600125], in experiment [1] (LOPAC 1280 library), the “FP (mP)” value came out at 65 mP.
Turning to `CC(C)/N=c1\cc2n(-c3ccc(Cl)cc3)c3ccccc3nc-2cc1Nc1ccc(Cl)cc1` [Clofazimine], the “FP (mP)” value in experiment [2] (setting [4]) amounted to 85.2 mP.
Still for that read-out and setting: as for `Clc1ccc(C(Cn2ccnc2)OCc2csc3c(Cl)cccc23)c(Cl)c1` (stereo not shown) [Sertaconazole], the figure is 88.2 mP.
For the compound `CCn1c(=O)c(-c2ccc(Cl)cc2Cl)cc2cnc(Nc3ccc(N4CCNCC4)c(F)c3)nc21` [FRAX 486], the “FP (mP)” value in experiment [2] (setting [3]) turned out to be 83.2 mP.
Take `OCCN1CCN(CCCN2c3ccccc3Sc3ccc(C(F)(F)F)cc32)CC1` [Fluphenazine.HCl]: the “FP (mP)” value in experiment [2] (setting [4]) was 76.1 mP.
With `Cn1c(NC[C@@H](N)Cc2ccccc2)nc(-c2ccncc2)c(-c2ccc3ccccc3c2)c1=O` [AMG 548], the “FP (mP)” value in experiment [2] (setting [3]) is reported as 90 mP.
Turning to (S)-(+)-Niguldipine hydrochloride, the “FP (mP)” value in experiment [2] worked out at 85.7 mP.
For `CN1CCN(CCCN2c3ccccc3Sc3ccc(C(F)(F)F)cc32)CC1` [Trifluoperazine dihydrochloride], the “FP (mP)” value in experiment [2] (setting [5]) turned out to be 84.5 mP.
Still for that read-out and setting: the same measure for `Clc1ccc(C(c2ccc(Cl)cc2)n2cc[n+](CC(OCc3ccc(Cl)cc3Cl)c3ccc(Cl)cc3Cl)c2)cc1` (stereo not shown) [Calmidazolium chloride]: 83.6 mP.
Consider `[H]/N=C(\N/C(=N/[H])NCCCCCCNC(=N)NC(=N)Nc1ccc(Cl)cc1)Nc1ccc(Cl)cc1` [Chlorhexidine Dihydrochloride], for which the “FP (mP)” value in experiment [1] (ENZO Screenwell library) turned out to be 58.8 mP.
As to `CCCNc1ccc2ncc(-c3ccc4[nH]ncc4c3)n2n1.O=C(O)C(F)(F)F` [CHR 6494 trifluoroacetate], in experiment [2] (setting [3]), the “FP (mP)” value is 81.9 mP.
Turning to `CSc1ccc2c(c1)N(CCC1CCCCN1C)c1ccccc1S2` (stereo not shown) [Thioridazine.HCl], the figures for the “FP (mP)” value in experiment [2] (setting [4]) and in experiment [2] (setting [5]) were 74.3 mP and 89.4 mP, respectively.
Take `COc1ccc(CCN(C)CCCOc2ccc(S(=O)(=O)c3c(C(C)C)c4ccccc4n3C)cc2)cc1OC.O=C(O)C(=O)O` [SR 33805 oxalate]: the “FP (mP)” value in experiment [2] (setting [3]) is 79 mP.
In the case of `CCN1CCN(C(=O)Cc2ccc(Nc3ncc(F)c(Nc4ccc(C(=O)Nc5ccccc5Cl)cc4)n3)cc2)CC1` [TC-S 7010], the “FP (mP)” value in experiment [1] (TOCRIScreen library) turned out to be 108.3 mP.
As for `OCCN1CCN(CCCN2c3ccccc3Sc3ccc(C(F)(F)F)cc32)CC1` [Fluphenazine dihydrochloride], the “FP (mP)” value in experiment [2] (setting [5]) is 87.3 mP.
Take `COc1ccc(Cl)cc1NC(=O)Nc1cc(C)nc2ccccc12` [PQ 401]: the “FP (mP)” value in experiment [2] (setting [3]) was found to be 80.2 mP.
Same read-out and setting: as for `Cc1cccc(C)c1-n1c(=O)c2cnc(Nc3ccc(N4CCN(C)CC4)cc3)nc2n2c3ccccc3nc12` [TC-S 7003], the figure is 73.5 mP.
Turning to `COc1cc(N2CCN(C)CC2)ccc1Nc1nccc(-c2cn(C)c3cnccc23)n1` [AZ 191], the “FP (mP)” value in experiment [2] (setting [5]) was 88.5 mP; in experiment [2] (setting [3]), 83.4 mP.
Regarding `CC/C(=C(\c1ccccc1)c1ccc(OCCN(C)C)cc1)c1ccccc1` [Tamoxifen Citrate], the “FP (mP)” value in experiment [2] (setting [4]) is recorded as 69.1 mP; in experiment [2] (setting [3]) it was 62.2 mP.
Consider `Cc1[nH]c(/C=C2\C(=O)Nc3ccc(S(=O)(=O)N(C)c4cccc(Cl)c4)cc32)c(C)c1C(=O)N1CCN(C)CC1` [SU 11274], for which the “FP (mP)” value in experiment [2] (setting [3]) was found to be 64.5 mP.
Still for that read-out and setting: the same measure for `c1ccc(Cn2c(-c3ccc(OC[C@H](C4CCNCC4)n4c(-c5ccccc5)nc5ccccc54)cc3)nc3ccccc32)cc1` [Deltarasin]: 87.7 mP.
Take `COc1cc(N2CCC(O)CC2)ccc1Nc1cc(Nc2ccccc2S(=O)(=O)C(C)C)c2cc[nH]c2n1.Cl.Cl` [Mps1-IN-1 dihydrochloride]: the “FP (mP)” value in experiment [2] (setting [3]) amounted to 84.6 mP.
In the case of `OCCNC1CCCc2c1[nH]c1ccc(-c3ccccc3)cc21` (stereo not shown) [CASIN], the “FP (mP)” value in experiment [2] (setting [3]) came out at 80.4 mP.
For the compound `O=C(c1ccc(Nc2nccc(-c3cc4ccccc4s3)n2)cc1)N1CCC(N2CCCC2)CC1` [IKK 16], the “FP (mP)” value in experiment [2] (setting [3]) was 82 mP.
As to `CN(C)CCCN1c2ccccc2Sc2ccc(Cl)cc21` [Chlorpromazine.HCl], the “FP (mP)” value stood at 88.9 mP in experiment [2] (setting [4]) and 91.3 mP in experiment [2] (setting [5]).
Regarding `COc1cc2c(Nc3ccc(NC(=O)c4ccccc4)cc3)ncnc2cc1OCCCN1CCOCC1` [ZM 447439], the “FP (mP)” value in experiment [2] (setting [3]) is given as 89.2 mP.
Take `COc1cc(C(=O)NC2CCN(C)CC2)ccc1Nc1ncc2c(n1)N(C1CCCC1)CC(F)(F)C(=O)N2C` [Ro 3280]: the “FP (mP)” value in experiment [2] (setting [3]) turned out to be 81.8 mP.
In the case of `NCCOc1cc(C(=O)Nc2cc(OCCN)c3ccccc3n2)nc(C(=O)Nc2cc(OCCN)c3ccccc3n2)c1` [Pyridostatin trifluoroacetate salt], in experiment [2] (setting [5]), the “FP (mP)” value was 85.6 mP.
